Where a name gives a salt, the structure may show the parent alone.
Molecular target: T1, S1P1 (Homo sapiens, UniProt P21453)
T1 construct: expressed in transfected cells; host or cells: CHO cells (membranes)
Test: 35S-GTPγS binding, S1P1 membranes
Assay type: biochemical
Conditions: membranes from CHO cells expressing S1P1; 60 min 30° C.
Procedure, shortened: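 CHO-cell membranes expressing S1P1 or S1P3 (1-10 μg) incubated with compounds in 20 mM HEPES pH 7.4, 10 mM MgCl2, 140 mM NaCl, saponin, 0.2% BSA, 1.7 μM GDP and [35S]-GTPγS (20 μl of 1.5 nM added), 60 min at 30° C. Bound radioactivity expressed as % of S1P activation.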

T1 sequence (P21453 whole entry, species assumed): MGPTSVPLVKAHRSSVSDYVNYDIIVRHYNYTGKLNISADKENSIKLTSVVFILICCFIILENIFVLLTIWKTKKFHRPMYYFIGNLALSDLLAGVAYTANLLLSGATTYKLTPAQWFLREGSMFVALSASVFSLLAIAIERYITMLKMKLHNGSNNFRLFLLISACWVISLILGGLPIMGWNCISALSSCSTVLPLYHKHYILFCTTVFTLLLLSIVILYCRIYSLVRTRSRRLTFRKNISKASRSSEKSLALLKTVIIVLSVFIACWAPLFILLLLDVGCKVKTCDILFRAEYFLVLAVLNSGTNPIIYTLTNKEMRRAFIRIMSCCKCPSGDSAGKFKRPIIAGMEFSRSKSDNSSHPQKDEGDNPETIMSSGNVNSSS

Compound	EC50
COCc1cc(-c2nc(-c3cccc(C(=O)NCCC(=O)O)c3)no2)ccc1-c1ccccc1C [Example 135, N-(3-{5-[2-(methoxymethyl)-2′-methylbiphenyl-4-yl]-1,2,4-oxadiazol-3-yl}benzoyl)-beta-alanine]	7.8 nM
COCc1cc(-c2nc(-c3cccc(C(=O)N(C)CC(=O)OC)c3)no2)ccc1-c1ccccc1C [Example 136, Methyl N-(3-{5-[2-(methoxymethyl)-2′-methylbiphenyl-4-yl]-1,2,4-oxadiazol-3-yl}benzoyl)-N-methylglycinate]	46 nM
COCc1cc(-c2nc(-c3cccc(C(=O)NCCCC(=O)OC)c3)no2)ccc1-c1ccccc1C [Example 137, Methyl 4-[(3-{5-[2-(methoxymethyl)-2′-methylbiphenyl-4-yl]-1,2,4-oxadiazol-3-yl}benzoyl)amino]butanoate]	25 nM
COCc1cc(-c2nc(-c3cccc(C(=O)N(C)CC(=O)O)c3)no2)ccc1-c1ccccc1C [Example 138, N-(3-{5-[2-(methoxymethyl)-2′-methylbiphenyl-4-yl]-1,2,4-oxadiazol-3-yl}benzoyl)-N-methylglycine]	48.6 nM
COCc1cc(-c2nc(-c3cccc(C(=O)NCCCC(=O)O)c3)no2)ccc1-c1ccccc1C [Example 139, 4-[(3-{5-[2-(methoxymethyl)-2′-methylbiphenyl-4-yl]-1,2,4-oxadiazol-3-yl}benzoyl)amino]butanoic acid]	9.6 nM
CCOC(=O)C1(NCc2cccc(-c3noc(-c4ccc(-c5ccccc5C)c(COC)c4)n3)c2)CC1 [Example 140, Ethyl 1-[(3-{5-[2-(methoxymethyl)-2′-methylbiphenyl-4-yl]-1,2,4-oxadiazol-3-yl}benzyl)amino]cyclopropanecarboxylate]	142 nM
COCc1cc(-c2nc(-c3cccc(CNCCC(=O)OC)c3)no2)ccc1-c1ccccc1C [Example 145, Methyl N-(3-{5-[2-(methoxymethyl)-2′-methylbiphenyl-4-yl]-1,2,4-oxadiazol-3-yl}benzyl)-beta-alaninate]	2.3 nM
COCc1cc(-c2nc(-c3cccc(CN(CC(=O)OC(C)(C)C)C(=O)OC(C)(C)C)c3)no2)ccc1-c1ccccc1C [Example 149, Tert-butyl N-(tert-butoxycarbonyl)-N-(3-{5-[2-(methoxymethyl)-2′-methylbiphenyl-4-yl]-1,2,4-oxadiazol-3-yl}benzyl)glycinate]	1240 nM
COCc1cc(-c2nc(-c3cccc(CNCCC(=O)OC(C)(C)C)c3)no2)ccc1-c1ccccc1C [Example 153, tert-butyl N-(3-{5-[2-(methoxymethyl)-2′-methylbiphenyl-4-yl]-1,2,4-oxadiazol-3-yl}benzyl)-beta-alaninate]	25.2 nM
COCc1cc(-c2nc(-c3ccc(F)c(CN(C)CCC(=O)O)c3)no2)ccc1-c1ccccc1C [Example 154, N-(2-fluoro-5-{5-[2-(methoxymethyl)-2′-methylbiphenyl-4-yl]-1,2,4-oxadiazol-3-yl}benzyl)-N-methyl-beta-alanine, Hydrochloride salt]	1.2 nM
COCc1cc(-c2nc(-c3cccc(CNCCC(=O)O)c3)no2)ccc1-c1ccccc1C [Example 155, N-(3-{5-[2-(methoxymethyl)-2′-methylbiphenyl-4-yl]-1,2,4-oxadiazol-3-yl}benzyl)-beta-alanine, Hydrochloride salt]	0.4 nM
CCc1ccccc1-c1ccc(-c2nc(-c3ccc(F)c(CN(C)CCC(=O)O)c3)no2)cc1COC [Example 156, N-(5-{5-[2′-ethyl-2-(methoxymethyl)biphenyl-4-yl]-1,2,4-oxadiazol-3-yl}-2-fluorobenzyl)-N-methyl-beta-alanine, Hydrochloride salt]	2.5 nM
COCc1cc(-c2nc(-c3ccc(F)c(CN(C)CCC(=O)O)c3)no2)ccc1OC(C)C [Example 157, N-(2-fluoro-5-{5-[4-isopropoxy-3-(methoxymethyl)phenyl]-1,2,4-oxadiazol-3-yl}benzyl)-N-methyl-beta-alanine, Hydrochloride salt]	4 nM
COCc1cc(-c2nc(-c3ccc(F)c(CN(C)CC(=O)O)c3)no2)ccc1OC(C)C [Example 158, N-(2-fluoro-5-{5-[4-isopropoxy-3-(methoxymethyl)phenyl]-1,2,4-oxadiazol-3-yl}benzyl)-N-methylglycine, Hydrochloride salt]	10 nM
COCc1cc(-c2nc(-c3cccc(COCC(=O)OC)c3)no2)ccc1-c1ccccc1C [Example 159, Methyl [(3-{5-[2-(methoxymethyl)-2′-methylbiphenyl-4-yl]-1,2,4-oxadiazol-3-yl}benzyl)oxy]acetate]	2.9 nM
COCc1cc(-c2nc(-c3cccc(COCC(=O)O)c3)no2)ccc1-c1ccccc1C [Example 160, [(3-{5-[2-(methoxymethyl)-2′-methylbiphenyl-4-yl]-1,2,4-oxadiazol-3-yl}benzyl)oxy]acetic acid]	0.6 nM

Compound	EC50
COCc1cc(-c2nc(-c3cccc(CCOCC(=O)O)c3)no2)ccc1-c1ccccc1C [Example 161, [2-(3-{5-[2-(methoxymethyl)-2′-methylbiphenyl-4-yl]-1,2,4-oxadiazol-3-yl}phenyl)ethoxy]acetic acid]	2.1 nM
CCc1ccccc1-c1ccc(-c2nc(-c3ccc(OCCCC(=O)O)c(F)c3)no2)cc1COC [Example 162, 4-(4-{5-[2′-ethyl-2-(methoxymethyl)biphenyl-4-yl]-1,2,4-oxadiazol-3-yl}-2-fluorophenoxy)butanoic acid]	5 nM
CCOC(=O)CCCOc1ccc(-c2noc(-c3ccc(N4CCCCC4C)c(COC)c3)n2)cc1F (centres unmarked) [Example 163, ethyl 4-(2-fluoro-4-{5-[3-(methoxymethyl)-4-(2-methylpiperidin-1-yl)phenyl]-1,2,4-oxadiazol-3-yl}phenoxy)butanoate]	5.5 nM
COCc1cc(-c2nc(-c3cccc(OCCCC(=O)O)c3)no2)ccc1N1CCCCC1C (centres unmarked) [Example 164, 4-(3-{5-[3-(methoxymethyl)-4-(2-methylpiperidin-1-yl)phenyl]-1,2,4-oxadiazol-3-yl}phenoxy)butanoic acid]	1.5 nM
COCc1cc(-c2nc(-c3ccc(OCCCC(=O)O)c(F)c3)no2)ccc1N1CCCCC1C (centres unmarked) [Example 165, 4-(2-fluoro-4-{5-[3-(methoxymethyl)-4-(2-methylpiperidin-1-yl)phenyl]-1,2,4-oxadiazol-3-yl}phenoxy)butanoic acid]	1.6 nM
COCc1cc(-c2nc(-c3ccc(OCC(=O)O)c(F)c3)no2)ccc1N1CCCCC1C (centres unmarked) [Example 169, (2-fluoro-4-{5-[3-(methoxymethyl)-4-(2-methylpiperidin-1-yl)phenyl]-1,2,4-oxadiazol-3-yl}phenoxy)acetic acid, hydrochloride salt]	5.2 nM
COCCNC(=O)c1ccc(-c2noc(-c3ccc(-c4ccccc4C)c(COC)c3)n2)cc1F [Example 172, 2-fluoro-N-(2-methoxyethyl)-4-{5-[2-(methoxymethyl)-2′-methylbiphenyl-4-yl]-1,2,4-oxadiazol-3-yl}benzamide]	33 nM
COCc1cc(-c2nc(-c3ccc(C(=O)N4CC(F)(F)C4)c(F)c3)no2)ccc1-c1ccccc1C [Example 175, 3-{4-[(3,3-difluoroazetidin-1-yl)carbonyl]-3-fluorophenyl}-5-[2-(methoxymethyl)-2′-methylbiphenyl-4-yl]-1,2,4-oxadiazole]	128 nM
CCc1cnc(CCNC(=O)c2ccc(-c3noc(-c4ccc(-c5ccccc5C)c(COC)c4)n3)cc2F)o1 [Example 176, N-[2-(5-ethyl-1,3-oxazol-2-yl)ethyl]-2-fluoro-4-{5-[2-(methoxymethyl)-2′-methylbiphenyl-4-yl]-1,2,4-oxadiazol-3-yl}benzamide]	197 nM
CCc1nnn(CCNC(=O)c2ccc(-c3noc(-c4ccc(-c5ccccc5C)c(COC)c4)n3)cc2F)n1 [Example 180, N-[2-(5-ethyl-2H-tetrazol-2-yl)ethyl]-2-fluoro-4-{5-[2-(methoxymethyl)-2′-methylbiphenyl-4-yl]-1,2,4-oxadiazol-3-yl}benzamide]	26 nM
COCCNC(=O)c1cccc(-c2noc(-c3ccc(-c4ccccc4C)c(COC)c3)n2)c1 [Example 181, N-(2-methoxyethyl)-3-{5-[2-(methoxymethyl)-2′-methylbiphenyl-4-yl]-1,2,4-oxadiazol-3-yl}benzamide]	16 nM
COCc1cc(-c2nc(-c3cccc(C(N)=O)c3)no2)ccc1-c1ccccc1C [Example 182, 3-{5-[2-(methoxymethyl)-2′-methylbiphenyl-4-yl]-1,2,4-oxadiazol-3-yl}benzamide]	11 nM
COCc1cc(-c2nc(-c3cccc(CNCCO)c3)no2)ccc1-c1ccccc1C [Example 187, 2-[(3-{5-[2-(methoxymethyl)-2′-methylbiphenyl-4-yl]-1,2,4-oxadiazol-3-yl}benzyl)amino]ethanol, Hydrochloride salt]	2 nM
COCCNCc1cccc(-c2noc(-c3ccc(-c4ccccc4C)c(COC)c3)n2)c1 [Example 188, 2-methoxy-N-(3-{5-[2-(methoxymethyl)-2′-methylbiphenyl-4-yl]-1,2,4-oxadiazol-3-yl}benzyl)ethanamine, Hydrochloride salt]	4 nM
COCCOCc1cccc(-c2noc(-c3ccc(-c4ccccc4C)c(COC)c3)n2)c1 [Example 192]	6.1 nM
COCc1cc(-c2nc(-c3cccc(COCCO)c3)no2)ccc1-c1ccccc1C [Example 193, 2-[(3-{5-[2-(methoxymethyl)-2′-methylbiphenyl-4-yl]-1,2,4-oxadiazol-3-yl}benzyl)oxy]ethanol]	1.8 nM

From patent publication US8202865B2, “Oxadiazole derivatives” (Merck Serono SA, priority 2007, dated 2012)
